Earlier results on four compounds are cited in PMC10757118, “HS‐10352 in hormone receptor‐positive, HER2‐negative advanced breast cancer: A phase 1 dose‐escalation trial” (Cancer Medicine, 2023).

Series [1] deals with HR‐positive, HER2‐negative breast cancer with altered AKT pathways. Details: method as in ref 35 = [35]; 35 Turner N , Oliveira M , Howell SJ , et al. Abstract GS3‐04: GS3‐04 Capivasertib and fulvestrant for patients with aromatase inhibitor‐resistant hormone receptor‐positive/human epidermal growth fact. As to conditions: CAPItello‐291, altered AKT pathways ref 35.
Series [2] concerns PIK3CA‐mutant breast cancer. Details: method as in PMID 29066505. Particulars: PIK3CA‐mutant breast cancer patients ref 31.
The subject of series [3] is PIK3CA‐mutant, HR‐positive, HER2‐negative breast cancer. Details: method as in ref 33 = [33]; 33 Juric D , Kalinsky K , Oliveira M , et al. Abstract OT1‐08‐04: a first‐in‐human phase Ia dose escalation study of GDC‐0077, a p110a‐selective and mutant‐degrading PI3K inhibitor, in patients with P. Particulars: single agent, HER2‐negative breast cancer patients ref 33.
Series [4] concerns ER‐positive, HER2‐negative breast cancer. Further details: method as in PMID 29401002. As to conditions: monotherapy, HER2‐negative breast cancer patients ref 19.

For `C[C@]12CC[C@@H]3c4ccc(O)cc4C[C@@H](CCCCCCCCC[S+]([O-])CCCC(F)(F)C(F)(F)F)[C@H]3[C@@H]1CC[C@@H]2O` (some centres unmarked) [fulvestrant without capivasertib], in series [1], the ORR is 9.7% and the “median PFS” value is on record as 3.1 months.

Turning to `NC1(C(=O)N[C@@H](CCO)c2ccc(Cl)cc2)CCN(c2ncnc3[nH]ccc23)CC1` [Capivasertib], the ORR in series [2] is 4%.

In the case of `C[C@H](Nc1ccc2c(c1)OCCn1cc(N3C(=O)OC[C@H]3C(F)F)nc1-2)C(N)=O` [GDC‐0077], the “confirmed ORR” value in series [3] is listed as 20%.

For the compound `Cc1nc(NC(=O)N2CCC[C@H]2C(N)=O)sc1-c1ccnc(C(C)(C)C(F)(F)F)c1` [alpelisib], the ORR in series [4] is listed as 4.3%.
